Like-named read-outs stand apart in the source and are kept apart here.
Tests used:
IL-2 = assay: SEB-activated T cell cytokine ELISA, IL-2; assay type: cell-based, human
IFN-γ = assay: SEB-activated T cell cytokine ELISA, IFN-γ; assay type: cell-based, human
TNF-α = assay: SEB-activated T cell cytokine ELISA, TNF-α; assay type: cell-based, human
Hepatitis B (HBV) = assay: microbe, parasite or virus in culture; assay type: cell-based; settings: read-out: Dir. Antiviral activity (EC50) HBV
Influenza (INFL) A = assay: microbe, parasite or virus in culture; assay type: cell-based; settings: read-out: Dir. Antiviral activity (EC50) INFL. A
Influenza (INFL) B = assay: Direct antiviral activity, Influenza B; assay type: cell-based; settings: Influenza B virus; read-out: Dir. Antiviral activity (EC50) INFL. B
Method: (§1) In vitro testing for direct antiviral activity of Levovirin™ and Ribavirin against influenza A and B, parainfluenza 1 and 2, and respiratory syncytial virus were performed as described in Huffman, J. H. et al. Antiviral Chem. and Chemother. 1997, 8: 75-83 and Barnard, D. L. et al. Antiviral Chem. and Chemother 1997, 8: 223-233. Anti-human immunodeficiency virus activity was assessed by the National Cancer Institute using a procedure designed to detect agents acting at any stage of the virus reproductive cycle [Weislow, O. W. et al., J. Natl. Cancer Inst. 1989, 81: 577-5861. Anti-hepatitis B (HBV) activity was monitored by using an assay as described by Marion et al., Hepatology 1987, 7: 724-731. Anti-HIV activity and cytotoxicity for Ribavirin was determined from previous data [McCormick, J. B., Lancet, 1998, II: 1367-1369.

Parainfluenza (PARA) 1 = assay: organism not typed; assay type: cell-based, Parainfluenza 1; settings: read-out: Dir. Antiviral activity (EC50) PARA 1
Parainfluenza (PARA) 3 = assay: organism not typed; assay type: cell-based, Parainfluenza 3; settings: read-out: Dir. Antiviral activity (EC50) PARA 3
[1] = test system: respiratory syncytial virus (RSV); assay: microbe, parasite or virus in culture; assay type: cell-based; settings: human respiratory syncytial virus, read-out: Dir. Antiviral activity (EC50) RSV
[2] = Cytotoxicity in Influenza A assay; assay type: cell-based; settings: cells infected with Influenza A; read-out: Cytotoxicity (CC50) INFL. A
Method: as §1

[3] = Cytotoxicity in Influenza B assay; assay type: cell-based; settings: cells infected with Influenza B; read-out: Cytotoxicity (CC50) INFL. B
Method: as §1

[4] = test system: Concanavalin A induced hepatitis; assay type: in vivo; settings: BALB/c mice, single i.p. dose 20 μg (1 mg/kg) 1 hr before i.v. 0.3 mg Con A; serum after 24 hr; PBS control about 1900 U/ml
rats = settings: rat, in vivo, po, 180 mg/kg
[5] = test system: human immunodeficiency virus (HIV); settings: read-out: Dir. Antiviral activity (EC50) HIV; cited from earlier work
cells infected with HIV [6] = settings: cited from earlier work
[7] = test system: human immunodeficiency virus (HIV); assay: microbe, parasite or virus in culture; assay type: cell-based; settings: Human immunodeficiency virus 1, read-out: Dir. Antiviral activity (EC50) HIV
[8] = test system: cells infected with Influenza A; assay: Cytotoxicity in Influenza A assay; assay type: cell-based; settings: read-out: Cytotoxicity (CC50) INFL. A
Method: as §1

[9] = test system: cells infected with Influenza B; assay: Cytotoxicity in Influenza B assay; assay type: cell-based; settings: read-out: Cytotoxicity (CC50) INFL. B
Method: as §1

cells infected with HIV [10] = test system: cells infected with HIV
[11] = test system: cells infected with Parainfluenza 1
[12] = test system: cells infected with Parainfluenza 3
[13] = SEB stimulated T cells, 48 hrs, 0-10 μM compound, +/- standard deviation, 100% = no effect

SMILES: NC(=O)c1ncn([C@@H]2O[C@H](CO)[C@@H](O)[C@H]2O)n1 [Ribavirin]
- IL-2, mean percentage of activated control (IL-2; [13]): 143 ±18%
- IFN-γ, mean percentage of activated control (IFN-γ; [13]): 131 ± 6%
- TNF-α, mean percentage of activated control (TNF-α; [13]): 124 ± 4%
- EC50 (Hepatitis B (HBV)): > 100 µM
- EC50 (Influenza (INFL) A): 6.1 µM
- EC50 (Influenza (INFL) B): 1.9 µM
- EC50 (Parainfluenza (PARA) 1): 40 µM
- EC50 (Parainfluenza (PARA) 3): 4 µM
- EC50 [1]: 5 µM
- CC50 [2]: 56 µM
- CC50 [3]: > 100 µM
- Con A induced serum ALT level [4]: 969 U/ml
- Clinical pathology (hemolytic anemia, leukopenia) (rats): produced significant hemolytic anemia and leukopenia
- EC50 [5]: 40 µM
- CC50 (cells infected with HIV [6]): > 40 µM

SMILES: NC(=O)c1ncn([C@H]2O[C@@H](CO)[C@H](O)[C@@H]2O)n1 [Levovirin™, 1-(β-L-ribofuranosyl)-1,2,4-triazole-3-carboxamide]
- IL-2, mean percentage of activated control (IL-2): 131 ± 12%
- IFN-γ, mean percentage of activated control (IFN-γ): 122 ± 3%
- TNF-α, mean percentage of activated control (TNF-α): 144 ± 7%
- EC50 (Hepatitis B (HBV)): > 100 µM
- EC50 [7]: > 600 µM
- EC50 (Influenza (INFL) A): > 200 µM
- EC50 (Parainfluenza (PARA) 1): > 1000 µM
- EC50 (Parainfluenza (PARA) 3): > 1000 µM
- EC50 [1]: > 1000 µM
- CC50 [8]: > 200 µM
- CC50 [9]: > 200 µM
- CC50 (cells infected with HIV [10]): > 600 µM
- CC50 [11]: > 1000 µM
- CC50 [12]: > 1000 µM
- Clinical pathology (hemolytic anemia, leukopenia) (rats): did not produce any observable clinical pathology
